The first assay addresses Ba/F3 V617F cells (Homo sapiens, UniProt O60674, V617F, cells depend on it). The experiment in a line: Proliferation assay (Cell Titer-Glo, 72 h) utilizing Ba/F3 V617F cells. It counts as cell-based, mouse. Particulars: Ba/F3 V617F cells, proliferation, level of activity given as class symbol, read-out: IC50 (the source's name). The procedure, abridged: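 Readout is CellTiter-Glo luminescence after 72 h at 37 °C, giving IC50. Cells: Ba/F3 V617F, 1×10^5 cells/mL in RPMI with 10% FBS, treated in duplicate with 3-fold dilution series made from 5 mM DMSO stock, 1:250 in 5% FBS medium, added at 2×.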
Ba/F3 V617F cells, sequence (O60674 whole entry V617F): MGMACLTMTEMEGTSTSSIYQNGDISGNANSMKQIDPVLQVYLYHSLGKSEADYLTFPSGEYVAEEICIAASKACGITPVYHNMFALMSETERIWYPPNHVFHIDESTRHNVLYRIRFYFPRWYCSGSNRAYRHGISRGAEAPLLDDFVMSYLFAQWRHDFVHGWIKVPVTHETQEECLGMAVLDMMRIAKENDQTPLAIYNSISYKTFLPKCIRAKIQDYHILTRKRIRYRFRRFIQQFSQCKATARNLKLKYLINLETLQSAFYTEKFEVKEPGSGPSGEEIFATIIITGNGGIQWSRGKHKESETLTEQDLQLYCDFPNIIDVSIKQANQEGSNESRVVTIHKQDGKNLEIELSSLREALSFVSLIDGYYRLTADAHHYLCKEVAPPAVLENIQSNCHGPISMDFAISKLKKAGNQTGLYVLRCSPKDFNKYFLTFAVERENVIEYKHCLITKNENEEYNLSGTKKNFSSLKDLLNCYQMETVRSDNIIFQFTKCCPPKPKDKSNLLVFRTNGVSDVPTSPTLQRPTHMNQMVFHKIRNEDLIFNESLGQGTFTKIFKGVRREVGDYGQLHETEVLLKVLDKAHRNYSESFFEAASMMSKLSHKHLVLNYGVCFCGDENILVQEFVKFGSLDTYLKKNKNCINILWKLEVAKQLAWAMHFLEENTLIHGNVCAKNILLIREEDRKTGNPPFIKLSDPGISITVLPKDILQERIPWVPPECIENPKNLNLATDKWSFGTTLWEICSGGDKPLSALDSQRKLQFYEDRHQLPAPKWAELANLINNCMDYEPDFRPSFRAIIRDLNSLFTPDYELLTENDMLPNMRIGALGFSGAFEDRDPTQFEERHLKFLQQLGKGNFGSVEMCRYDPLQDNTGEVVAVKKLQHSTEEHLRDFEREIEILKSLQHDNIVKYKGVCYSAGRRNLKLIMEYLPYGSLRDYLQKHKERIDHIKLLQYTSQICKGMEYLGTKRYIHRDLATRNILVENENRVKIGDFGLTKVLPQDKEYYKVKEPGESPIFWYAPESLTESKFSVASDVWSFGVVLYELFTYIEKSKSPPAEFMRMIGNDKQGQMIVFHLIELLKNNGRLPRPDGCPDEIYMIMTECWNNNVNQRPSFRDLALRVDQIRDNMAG
Consider `CS(=O)(=O)N1CC2CC1CC2c1ccc(Nc2nccc(-c3ccc(N4CCOCC4)nc3)n2)cc1` (centres unmarked) [compound 227, 4-(6-(morpholin-4-yl)pyridin-3-yl)-N-(4-(2-methylsulfonyl-2-azabicyclo[2.2.1]heptan-5-yl)phenyl)pyrimidin-2-amine], for which the GI50 is < 1 µM. Still for that read-out and setting: next, `CN1C[C@@H]2C[C@H]1CN2c1ccc(Nc2nccc(-c3ccc(N4CCOCC4)nc3)n2)cc1Cl` [compound 255, 4-(6-(morpholin-4-yl)pyridin-3-yl)-N-(3-chloro-4-((1S,4S)-5-methyl-2,5-diazabicyclo[2.2.1]heptan-2-yl)phenyl)pyrimidin-2-amine]: < 1 µM; `Cc1cc(Nc2nccc(-c3cnc4c(c3)OC(C)(C)C(=O)N4)n2)ccc1N1CCN2CCC1C2` (centres unmarked) [compound 252, 4-(2,2-dimethyl-3-oxo-3,4-dihydro-2H-pyrido[3,2-b][1,4]oxazin-7-yl)-N-(3-methyl-4-(1,4-diazabicyclo[3.2.1]octan-4-yl)phenyl)pyrimidin-2-amine]: < 1 µM. Take `Cc1cc(Nc2nccc(-c3ccc(OC4CCOCC4)nc3)n2)ccc1N1CCN2CCC1C2` (centres unmarked) [compound 275, 4-(6-(tetrahydropyran-4-yloxy)pyridin-3-yl)-N-(3-methyl-4-(1,4-diazabicyclo[3.2.1]octan-4-yl)phenyl)pyrimidin-2-amine]: the GI50 was < 1 µM. For `Cc1cc(Nc2nccc(-c3ccc(OC4CCOCC4)nc3)n2)ccc1N1C[C@@H]2C[C@H]1CN2C1CCCC1` [compound 262, 4-(6-(tetrahydropyran-4-yloxy)pyridin-3-yl)-N-(3-methyl-4-((1S,4S)-5-cyclopentyl-2,5-diazabicyclo[2.2.1]heptan-2-yl)phenyl)pyrimidin-2-amine], the GI50 was < 1 µM. Same read-out and setting: next, `Cc1cc(Nc2nccc(-c3ccc(N4CCOCC4)nc3)n2)ccc1N1C2CCC1CC(N1CCOCC1)C2` (centres unmarked) [compound 284, 4-(6-(morpholin-4-yl)pyridin-3-yl)-N-(3-methyl-4-(3-(morpholin-4-yl)-8-azabicyclo[3.2.1]octan-8-yl)phenyl)pyrimidin-2-amine]: < 1 µM.

The same assay, now with this note: Ba/F3 V617F cells, proliferation, level of activity to inhibit JAK2, read-out: IC50 (the source's name).
For `CN1C[C@@H]2C[C@H]1CN2c1ccc(Nc2nccc(-c3ccc(NC(=O)CN4CCOCC4)nc3)n2)cc1` [compound 142, 4-(6-(2-(morpholin-4-yl)acetamido)pyridin-3-yl)-N-(4-((1S,4S)-5-methyl-2,5-diazabicyclo[2.2.1]heptan-2-yl)phenyl)pyrimidin-2-amine], the GI50 lay within 1 to 10 µM. As for `CN1C[C@@H]2C[C@H]1CN2c1ccc(Nc2nccc(-c3cncc(S(C)(=O)=O)c3)n2)cc1F` [compound 101, 4-(5-(methyl)sulfonylpyridin-3-yl)-N-(3-fluoro-4-((1S,4S)-5-methyl-2,5-diazabicyclo[2.2.1]heptan-2-yl)phenyl)pyrimidin-2-amine], the GI50 was < 1 µM.

Take `Cc1cc(Nc2nccc(-c3cc4cc(C#N)ccc4[nH]3)n2)ccc1N1C[C@@H]2C[C@H]1CN2C` [compound 108, 4-(5-cyano-1H-indol-2-yl)-N-(3-methyl-4-((1S,4S)-5-methyl-2,5-diazabicyclo[2.2.1]heptan-2-yl)phenyl)pyrimidin-2-amine]: the GI50 is < 1 µM. Same read-out and setting: the result for `CN1C[C@@H]2C[C@H]1CN2c1ccc(Nc2nccc(-c3ccc(NC(=O)C(C)(C)C)cc3)n2)cc1F` [compound 128, 4-(4-(t-butylcarbonylamino)phenyl)-N-(3-fluoro-4-((1S,4S)-5-methyl-2,5-diazabicyclo[2.2.1]heptan-2-yl)phenyl)pyrimidin-2-amine] reads < 1 µM; that for `CCN1C[C@@H]2C[C@H]1CN2c1ccc(Nc2nccc(-c3cnc4c(c3)OC3(CCC3)C(=O)N4)n2)cc1C` [compound 32, 4-(3′-oxo-3′,4′-dihydrospiro[cyclobutane-1,2′-pyrido[3,2-b][1,4]oxazine]-7′-yl)-N-(3-methyl-4-((1S,4S)-5-ethyl-2,5-diazabicyclo[2.2.1]heptan-2-yl)phenyl)pyrimidin-2-amine], < 1 µM. Consider `CCC(=O)N1C[C@@H]2C[C@H]1CN2c1ccc(Nc2nccc(-c3ccc(N)nc3)n2)cc1C` [compound 148, 4-(6-aminopyridin-3-yl)-N-(3-methyl-4-((1S,4S)-5-ethylcarbonyl-2,5-diazabicyclo[2.2.1]heptan-2-yl)phenyl)pyrimidin-2-amine], for which the GI50 is < 1 µM. On the same count and under the same terms, next, `N#Cc1cc(Nc2nccc(-c3ccc(N4CCOCC4)nc3)n2)ccc1N1C[C@@H]2C[C@H]1CN2C1CCCC1` [compound 119, 4-(6-(morpholin-4-yl)pyridin-3-yl)-N-(3-cyano-4-((1S,4S)-5-cyclopentyl-2,5-diazabicyclo[2.2.1]heptan-2-yl)phenyl)pyrimidin-2-amine]: < 1 µM.

Regarding `CN1C[C@@H]2C[C@H]1CN2c1ccc(Nc2nccc(-c3ccc(NC(=O)CN4CCOCC4)nc3)n2)cc1F` [compound 143, 4-(6-(2-(morpholin-4-yl)acetamido)pyridin-3-yl)-N-(3-fluoro-4-((1S,4S)-5-methyl-2,5-diazabicyclo[2.2.1]heptan-2-yl)phenyl)pyrimidin-2-amine], the GI50 was in the range of 1 to 10 µM. In the case of `CN1C[C@@H]2C[C@H]1CN2c1ccc(Nc2nccc(-c3cnc(N4CCOCC4)nc3)n2)cc1` [compound 40, 4-(2-(morpholin-4-yl)pyrimidin-5-yl)-N-(4-((1S,4S)-5-methyl-2,5-diazabicyclo[2.2.1]heptan-2-yl)phenyl)pyrimidin-2-amine], the GI50 lay in the range of 1 to 10 µM. Same read-out and setting: the result for `Cc1cc(Nc2nccc(-c3cnc4c(c3)OC(C)(C)C(=O)N4)n2)ccc1N1C[C@@H]2C[C@H]1CO2` [compound 27, 4-(2,2-dimethyl-3-oxo-3,4-dihydro-2H-pyrido[3,2-b][1,4]oxazin-7-yl)-N-(3-methyl-4-((1S,4S)-5-oxa-2-azabicyclo[2.2.1]heptan-2-yl)phenyl)pyrimidin-2-amine] reads < 1 µM.

The same assay, now with this note: inhibition of JAK2 activity, proliferation of Ba/F3 V617F cells, read-out: IC50 (the source's name).
In the case of `Cc1cc(Nc2nccc(-c3cnc4c(c3)OCCN4C)n2)cnc1N1C[C@@H]2C[C@H]1CN2C` [compound 65, 4-(4-methyl-3,4-dihydro-2H-pyrido[3,2-b][1,4]oxazin-7-yl)-N-(5-methyl-6-((1S,4S)-5-methyl-2,5-diazabicyclo[2.2.1]heptan-2-yl)pyridin-3-yl)pyrimidin-2-amine], the GI50 was < 1 µM.

Regarding `Cc1cc(Nc2nccc(-c3cnc4c(c3)OC(C)(C)C(=O)N4)n2)cnc1N1C[C@@H]2C[C@H]1CN2C` [compound 138, 4-(2,2-dimethyl-3-oxo-3,4-dihydro-2H-pyrido[3,2-b][1,4]oxazin-7-yl)-N-(5-methyl-6-((1S,4S)-5-methyl-2,5-diazabicyclo[2.2.1]heptan-2-yl)pyridin-3-yl)pyrimidin-2-amine], the GI50 was < 1 µM. Same read-out and setting: next, `CC(=O)N1CCN(c2ccc(-c3ccnc(Nc4cnc(N5C[C@@H]6C[C@H]5CN6C)c(C)c4)n3)cn2)CC1` [compound 63, 4-(6-(4-acetylpiperazin-1-yl)pyridin-3-yl)-N-(5-methyl-6-((1S,4S)-5-methyl-2,5-diazabicyclo[2.2.1]heptan-2-yl)pyridin-3-yl)pyrimidin-2-amine]: 1 to 10 µM; `Cc1cc(Nc2nccc(-c3ccc(N)nc3)n2)cnc1N1C[C@@H]2C[C@H]1CN2C` [compound 145, 4-(6-aminopyridin-3-yl)-N-(5-methyl-6-((1S,4S)-5-methyl-2,5-diazabicyclo[2.2.1]heptan-2-yl)pyridin-3-yl)pyrimidin-2-amine]: < 1 µM.

These data come from patent publication US9624229B2, “Pyrimidine-2-amine compounds and their use as inhibitors of JAK kinases” (Rigel Pharmaceuticals, Inc., priority 2008, dated 2017).
